# Measurements from patent publication US11147272B2, “Pyridone compounds and agricultural and horticultural fungicides comprising the same as active ingredients” (MITSUI CHEMICALS AGRO, INC., priority 2017, dated 2021).
# Tests used:
# Alternaia brassicicola = test: Test Example C: Alternaria sooty spot on cabbage; type: in vivo; conditions: for Test C control value class: class of control value
# From the text: Seeds of a test plant (cabbage variety: Shikidori) were planted and cultivated until the cotyledons extended.
# <Control Value> Control value=100{1−(n/3)}
# Phytophthora infestans = test: whole plant or invertebrate; type: in vivo; conditions: for Test F control value class: class of control value
# Puccinia recondita = test: Test Example E: Brown rust on wheat; type: in vivo; conditions: for Test E control value class: class of control value
# [1] = system: Colletotrichum orbiculare; test: Test Example H: Anthracnose on cucumber; conditions: for Test H control value class: Anthracnose on cucumber (Sagami Hanjiro), 2.5 ml/pot, assessed 6 to 10 days after inoculation; for Test H control value: 6 to 10 days after inoculation
# [2] = system: Blumeria graminis f. sp. hordei; test: Test Example D: Powdery mildew on barley; conditions: for Test D control value class: class of control value
# Magnaporthe grisea = test: whole plant or invertebrate; type: in vivo; conditions: for Test A control value class: class of control value
# Botrytis cinerea = test: Test Example B: Gray mold on tomato; conditions: for Test B control value class: class of control value
# Plasmopara viticola = test: Test Example G: Downy mildew on vine; conditions: for Test G control value class: Downy mildew on vine (Neomuscat), 2.5 ml/pot, assessed 7 to 10 days after inoculation; for Test G control value: 7 to 10 days after inoculation
# [3] = Alternaria sooty spot on cabbage
# [4] = Alternaria sooty spot on cabbage, control value class
# [5] = Late blight on tomato, control value class
# [6] = Brown rust on wheat, control value class
# [7] = Anthracnose on cucumber, 250 ppm spray
# [8] = Powdery mildew on barley, control value class
# [9] = Blast on rice, control value class
# [10] = Gray mold on tomato, control value class
# [11] = Downy mildew on vine, 250 ppm spray
# [12] = 250 ppm drug solution sprayed on test plant
# [13] = 250 ppm drug solution sprayed (2.5 ml/pot), cucumber Sagami Hanjiro
# [14] = 250 ppm drug solution sprayed (2.5 ml/pot), grape Neomuscat
SMILES,Test C control value (Alternaia brassicicola; [4]),Test F control value (Phytophthora infestans; [5]),Test E control value (Puccinia recondita; [6]),"Test H control value [1, 7]","Test D control value [2, 8]",Test A control value (Magnaporthe grisea; [9]),Test B control value (Botrytis cinerea; [10]),Test G control value (Plasmopara viticola; [11]),Test C control value (Alternaia brassicicola; [12]),Test F control value (Phytophthora infestans; [12]),Test E control value (Puccinia recondita; [12]),"Test H control value [1, 13]","Test D control value [2, 12]",Test A control value (Magnaporthe grisea; [12]),Test B control value (Botrytis cinerea; [12]),Test G control value (Plasmopara viticola; [14]),further results
CCn1c(-c2ccc(Cl)cc2Cl)c(CC(C)C)cc(Cl)c1=O [compound 139],,,,,,,,,,,,,,,,,Test C control value class (Alternaia brassicicola; [3]): H (more than 50% control value); Test F control value class (Phytophthora infestans; Late blight on tomato): L (50% or less control value); Test E control value class (Puccinia recondita; Brown rust on wheat): H (more than 50% control value); Test H control value class ([1]; 250 ppm spray): H (more than 50% control value); Test D control value class ([2]; Powdery mildew on barley): H (more than 50% control value); Test A control value class (Magnaporthe grisea; Blast on rice): H (more than 50% control value); Test B control value class (Botrytis cinerea; Gray mold on tomato): H (more than 50% control value); Test G control value class (Plasmopara viticola; 250 ppm spray): H (more than 50% control value)
CCCc1ccc(=S)n(CC)c1-c1ccc(F)cc1Cl [compound 331],L (50% or less control value),L (50% or less control value),H (more than 50% control value),H (more than 50% control value),H (more than 50% control value),L (50% or less control value),H (more than 50% control value),L (50% or less control value),,,,,,,,,
CCn1c(-c2ccc(Br)cc2)c(CC(C)C)cc(Cl)c1=O [compound 177],,,,,,,,,,,,,,,,,Test C control value class (Alternaia brassicicola; [3]): H (more than 50% control value); Test F control value class (Phytophthora infestans; Late blight on tomato): L (50% or less control value); Test E control value class (Puccinia recondita; Brown rust on wheat): H (more than 50% control value); Test H control value class ([1]; 250 ppm spray): L (50% or less control value); Test D control value class ([2]; Powdery mildew on barley): L (50% or less control value); Test A control value class (Magnaporthe grisea; Blast on rice): L (50% or less control value); Test B control value class (Botrytis cinerea; Gray mold on tomato): H (more than 50% control value); Test G control value class (Plasmopara viticola; 250 ppm spray): L (50% or less control value)
CCn1c(-c2c(F)cc(F)cc2F)c(C(O)CC(C)C)cc(Cl)c1=O (centres unmarked) [compound 90],,,,,,,,,,,,,,,,,Test C control value class (Alternaia brassicicola; [3]): H (more than 50% control value); Test F control value class (Phytophthora infestans; Late blight on tomato): L (50% or less control value); Test E control value class (Puccinia recondita; Brown rust on wheat): H (more than 50% control value); Test H control value class ([1]; 250 ppm spray): H (more than 50% control value); Test D control value class ([2]; Powdery mildew on barley): H (more than 50% control value); Test A control value class (Magnaporthe grisea; Blast on rice): H (more than 50% control value); Test B control value class (Botrytis cinerea; Gray mold on tomato): H (more than 50% control value); Test G control value class (Plasmopara viticola; 250 ppm spray): H (more than 50% control value)
CCCCCCCCCC1=C(c2ccc(F)cc2Cl)N(CC)C(=O)CC1 [compound 267],L (50% or less control value),L (50% or less control value),L (50% or less control value),H (more than 50% control value),H (more than 50% control value),L (50% or less control value),L (50% or less control value),L (50% or less control value),,,,,,,,,
"CCn1c(-c2c(F)cc(F)cc2F)c(C=O)cc(Cl)c1=O [Compound No. 289, 5-chloro-1-ethyl-6-oxo-2-(2,4,6-trifluorophenyl)-1,6-dihydropyridine-3-carbaldehyde]",,,,,,,,,,,,,,,,,"pest or weed control at 250 µg/mL (Alternaia brassicicola; Brassica oleracea, topical, Alternaria sooty spot on cabbage, control value class, read-out: Test C control value): > 50%; pest or weed control at 250 µg/mL (Phytophthora infestans; Phytophthora infestans, in Solanum lycopersicum, topical, read-out: Test F control value): < 50%; pest or weed control at 250 µg/mL (Puccinia recondita; Puccinia recondita, topical, Brown rust on wheat, control value class, read-out: Test E control value): > 50%; pest or weed control at 250 ppm ([1]; Colletotrichum orbiculare, in Cucumis sativus, topical, 144 h, read-out: Test H control value): > 50%; pest or weed control at 250 µg/mL ([2]; Blumeria graminis, in Hordeum vulgare, topical, read-out: Test D control value): < 50%; pest or weed control at 250 µg/mL (Magnaporthe grisea; Pyricularia oryzae, in Oryza sativa, read-out: Test A control value): < 50%; pest or weed control at 250 µg/mL (Botrytis cinerea; Botrytis cinerea, in Solanum lycopersicum, topical, read-out: Test B control value): > 50%; pest or weed control at 250 ppm (Plasmopara viticola; Plasmopara viticola, topical, 168 h, read-out: Test G control value): < 50%"
CC(C)C(=O)c1cc(Cl)c(=O)n(C)c1-c1c(F)cc(F)cc1F [compound 448],,,,,,,,,L (50% or less control value),L (50% or less control value),L (50% or less control value),L (50% or less control value),L (50% or less control value),L (50% or less control value),H (more than 50% control value),L (50% or less control value),
CCCCCCC1=C(c2ccc(F)cc2Cl)N(CC)C(=O)CC1 [compound 282],L (50% or less control value),L (50% or less control value),L (50% or less control value),L (50% or less control value),H (more than 50% control value),L (50% or less control value),L (50% or less control value),L (50% or less control value),,,,,,,,,
CCn1c(-c2ccc(Cl)cc2Cl)c(CC(C)C)cc(Br)c1=O [compound 140],,,,,,,,,,,,,,,,,Test C control value class (Alternaia brassicicola; [3]): H (more than 50% control value); Test F control value class (Phytophthora infestans; Late blight on tomato): L (50% or less control value); Test E control value class (Puccinia recondita; Brown rust on wheat): H (more than 50% control value); Test H control value class ([1]; 250 ppm spray): H (more than 50% control value); Test D control value class ([2]; Powdery mildew on barley): H (more than 50% control value); Test A control value class (Magnaporthe grisea; Blast on rice): H (more than 50% control value); Test B control value class (Botrytis cinerea; Gray mold on tomato): H (more than 50% control value); Test G control value class (Plasmopara viticola; 250 ppm spray): H (more than 50% control value)
CCn1c(-c2c(F)cc(F)cc2F)c(C(C)(OC)C(C)C)cc(Br)c1=O (centres unmarked) [compound 465],,,,,,,,,H (more than 50% control value),L (50% or less control value),H (more than 50% control value),H (more than 50% control value),H (more than 50% control value),H (more than 50% control value),H (more than 50% control value),H (more than 50% control value),
CCn1c(-c2ccc(OC)cc2Cl)c(CC(C)C)cc(Cl)c1=O [compound 239],H (more than 50% control value),L (50% or less control value),H (more than 50% control value),H (more than 50% control value),H (more than 50% control value),H (more than 50% control value),H (more than 50% control value),L (50% or less control value),,,,,,,,,
CCOC(c1cc(Cl)c(=O)n(C)c1-c1c(F)cc(OC)cc1F)C(C)C (centres unmarked) [compound 499],,,,,,,,,H (more than 50% control value),L (50% or less control value),H (more than 50% control value),H (more than 50% control value),H (more than 50% control value),H (more than 50% control value),H (more than 50% control value),H (more than 50% control value),
CCCC1=C(c2c(F)cc(F)cc2F)N(CC)C(=S)CC1 [compound 424],,,,,,,,,L (50% or less control value),L (50% or less control value),L (50% or less control value),L (50% or less control value),L (50% or less control value),L (50% or less control value),H (more than 50% control value),L (50% or less control value),
CCCc1cc(Cl)c(=S)n(CC)c1-c1c(F)cc(F)cc1F [compound 430],,,,,,,,,H (more than 50% control value),L (50% or less control value),H (more than 50% control value),H (more than 50% control value),H (more than 50% control value),H (more than 50% control value),H (more than 50% control value),L (50% or less control value),
CCc1cc(Cl)c(=O)n(C)c1-c1ccc(F)cc1Br [compound 349],H (more than 50% control value),L (50% or less control value),H (more than 50% control value),L (50% or less control value),H (more than 50% control value),L (50% or less control value),H (more than 50% control value),H (more than 50% control value),,,,,,,,,
C=C(c1cc(Cl)c(=O)n(CC)c1-c1c(F)cccc1F)C(C)C [compound 197],H (more than 50% control value),L (50% or less control value),H (more than 50% control value),H (more than 50% control value),H (more than 50% control value),H (more than 50% control value),H (more than 50% control value),H (more than 50% control value),,,,,,,,,
